For 37 compounds, IC50 results are on record in US10959986B2, “Inhibitors of indoleamine 2,3-dioxygenase and methods of their use” (BRISTOL-MYERS SQUIBB COMPANY, priority 2018, dated 2021).

In the assay the target is T1, indoleamine 2,3-dioxygenase (IDO) (Homo sapiens, UniProt P14902).
T1 construct: media containing IFNγ (#285-IF/CF, R&D Systems) at a final concentration of 25 ng/mL; endogenous in cells; host or cells: HeLa (ATCC CCL-2), induced with IFN-gamma
The experiment in a line: HeLa cell-based indoleamine 2,3-dioxygenase (IDO) assay. The settings on record: HeLa cells with IFNγ 25 ng/mL, 48 hour incubation, kynurenine production. The method, then:
Assessment of Inhibitor Activity in HeLa Cell-Based Indoleamine 2,3-Dioxygenase (IDO) Assay.
HeLa (ATCCR CCL-2) cells were obtained from the ATCC® and cultured in Dulbecco's Modified Eagle Medium supplemented with 4.5 g/L glucose, […] L-glutamine and […] (#10-013-CV, Corning), 2 mM L-alanyl-L-glutamine dipeptide (#35050-061, Gibco), 100U/mL penicillin, 100 µg/mL streptomycin (#SV30010, HyClone) and 10% fetal bovine serum (#SH30071.03 HyClone). Cells were maintained in a humidified incubator at 37° C. in 5% CO2.
IDO activity was assessed as a function of kynurenine production as follows: HeLa cells were seeded in a 96-well culture plate at a density of 5,000 cells/well and allowed to equilibrate overnight. After 24 hours, the media was aspirated and replaced with media containing IFNγ (#285-IF/CF, R&D Systems) at a final concentration of 25 ng/mL. A serial dilution of each test compound was added to the cells in a total volume of 200 μL of culture medium. After a further 48 hour incubation, 170 μL of supernatant was transferred from each well to a fresh 96-well plate. 12.1 μL of 6. IN trichloroacetic acid (#T0699, Sigma-Aldrich) was added to each well and mixed, followed by incubation at 65° C. for 20 minutes to hydrolyze N-formylkynurenine, the product of indoleamine 2,3-dioxygenase, to kynurenine. The reaction mixture was then centrifuged for 10 mins at 500×g to sediment the precipitate. 100 μL of the supernatant was transferred from each well to a fresh 96-well plate. 100 μl of 2% (w/v) p-dimethylaminobenzaldehyde (#15647-7, Sigma-Aldrich) in acetic acid (#A6283, Sigma-Aldrich) was added to each well mixed and incubated at room temperature for 20 mins. Kynurenine concentrations were determined by measuring absorbance at 480 nm and calibrating against an L-kynurenine (#K8625, Sigma-Aldrich) standard curve using a SPECTRAMAX® M2e microplate reader (Molecular Devices). The percentage activity at each inhibitor concentration was determined and IC50 values assessed using nonlinear regression.

The mark [1] stands for this setting: read-out: IDO Hela IC50 potency class (A < 50, B < 250, C < 2000).

The structures appear in SMILES notation. Like-named read-outs stand apart in the source and are kept apart here.

T1 sequence (P14902 whole entry): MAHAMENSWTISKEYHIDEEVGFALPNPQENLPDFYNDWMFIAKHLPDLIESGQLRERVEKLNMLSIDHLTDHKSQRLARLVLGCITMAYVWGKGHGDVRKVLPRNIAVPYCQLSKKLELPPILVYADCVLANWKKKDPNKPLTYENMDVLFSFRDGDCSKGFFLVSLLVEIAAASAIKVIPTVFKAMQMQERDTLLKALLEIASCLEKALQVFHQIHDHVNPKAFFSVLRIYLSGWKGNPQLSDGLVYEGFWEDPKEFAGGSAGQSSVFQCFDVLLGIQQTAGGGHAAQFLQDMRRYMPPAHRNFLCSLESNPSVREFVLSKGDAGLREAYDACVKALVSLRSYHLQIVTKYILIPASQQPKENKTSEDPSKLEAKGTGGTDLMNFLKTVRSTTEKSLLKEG

As usually defined, the IC50 is the concentration needed to halve the response being measured. As to `CC[C@H](CC(=O)O)c1ccc(-c2cnn(C)c2)c(Nc2ccc(Cl)cc2F)c1` (single isomer, unassigned) [Example 2], the IC50 (read-out: IDO Hela IC50) was determined as 10 nM.

In the case of `CC[C@H](CC(=O)O)c1ccc(-c2cnn(C)c2)c(Nc2ccc(F)cc2)c1` (single isomer, unassigned) [Example 3], where the note is “read-out: IDO Hela IC50”, the IC50 was determined as 40 nM.

With `CC[C@H](CC(=O)O)c1ccc(-c2cnn(C)c2)c(Nc2ccc(Cl)cc2)c1` (single isomer, unassigned) [Example 4], the IC50 (read-out: IDO Hela IC50) worked out at 10 nM.

`CC[C@H](CC(=O)O)c1ccc(-c2cnn(C)c2)c(Nc2ccc(C#N)cc2)c1` (single isomer, unassigned) [Example 5]: the IC50 (read-out: IDO Hela IC50) is 110 nM.

With `CC[C@H](CC(=O)O)c1ccc(-c2cnn(C)c2)c(Nc2ccc(Cl)cn2)c1` (single isomer, unassigned) [Example 6], for the setting “read-out: IDO Hela IC50”, the IC50 was 470 nM.

For `CC[C@H](CC(=O)O)c1ccc(-c2cnn(C)c2)c(Nc2cccc(Cl)c2)c1` (single isomer, unassigned) [Example 7], the IC50 was no less than 1000 nM (read-out: IDO Hela IC50) and 250 to 2000 nM under setting [1].

With `CC[C@H](CC(=O)O)c1ccc(-c2cnn(C)c2)c(Nc2cccc(F)c2)c1` (single isomer, unassigned) [Example 8], the IC50 (read-out: IDO Hela IC50) was determined as 380 nM.

Turning to `CC[C@H](CC(=O)O)c1ccc(-c2cnn(C)c2)c(Nc2ccc(Cl)c(F)c2)c1` (single isomer, unassigned) [Example 9], the IC50 (read-out: IDO Hela IC50) was 20 nM.

`CC[C@H](CC(=O)O)c1ccc(-c2cnn(C)c2)c(Nc2ccc(C)cc2)c1` (single isomer, unassigned) [Example 10]: the IC50 (read-out: IDO Hela IC50) turned out to be 40 nM.

Take `CC[C@H](CC(=O)O)c1ccc(-c2cnn(C)c2)c(Nc2cccnc2)c1` (single isomer, unassigned) [Example 11]: the IC50 runs as follows: (read-out: IDO Hela IC50) no less than 1000 nM; under setting [1], 250 to 2000 nM.

Consider `CC[C@H](CC(=O)O)c1ccc(-c2cnn(C)c2)c(Nc2cnc(C)nc2)c1` (single isomer, unassigned) [Example 12], for which the IC50 is, setting by setting: (read-out: IDO Hela IC50) no less than 1000 nM; under setting [1], 250 to 2000 nM.

With `CCc1ncc(Nc2cc([C@H](CC)CC(=O)O)ccc2-c2cnn(C)c2)cn1` (single isomer, unassigned) [Example 13], the IC50 by setting is: (read-out: IDO Hela IC50) no less than 1000 nM; under setting [1], 250 to 2000 nM.

As for `CC[C@H](CC(=O)O)c1ccc(-c2cnn(C)c2)c(Nc2ccc(C(F)(F)F)cc2)c1` (single isomer, unassigned) [Example 14], where the note is “read-out: IDO Hela IC50”, the IC50 came out at 40 nM.

Take `CC[C@H](CC(=O)O)c1ccc(-c2cnn(C)c2)c(Nc2ccccn2)c1` (single isomer, unassigned) [Example 15]: the IC50 was no less than 1000 nM (read-out: IDO Hela IC50) and 250 to 2000 nM under setting [1].

For `CC[C@H](CC(=O)O)c1ccc(-c2cnn(C)c2)c(Nc2ccc(C#N)cn2)c1` (single isomer, unassigned) [Example 16], the IC50 is, setting by setting: (read-out: IDO Hela IC50) no less than 1000 nM; under setting [1], 250 to 2000 nM.

Consider `CC[C@H](CC(=O)O)c1ccc(-c2c(C)noc2C)c(Nc2ccc(Cl)cc2)c1` (single isomer, unassigned) [Example 17], for which the IC50 (read-out: IDO Hela IC50) is 10 nM.

`CC[C@H](CC(=O)O)c1ccc(-c2cn[nH]c2)c(Nc2ccc(Cl)cc2)c1` (single isomer, unassigned) [Example 18]: the IC50 (read-out: IDO Hela IC50) was determined as 70 nM.

As for `CC[C@H](CC(=O)O)c1ccc(-c2nc(C)cs2)c(Nc2ccc(Cl)cc2)c1` (single isomer, unassigned) [Example 19], the IC50 is no less than 1000 nM (read-out: IDO Hela IC50) and 250 to 2000 nM under setting [1].

Take `CC[C@H](CC(=O)O)c1ccc(-c2nc(-c3ccccc3)cs2)c(Nc2ccc(Cl)cc2)c1` (single isomer, unassigned) [Example 20]: the IC50 (read-out: IDO Hela IC50) turned out to be 30 nM.

`CC[C@H](CC(=O)O)c1ccc(-c2nccs2)c(Nc2ccc(Cl)cc2)c1` (single isomer, unassigned) [Example 21]: the IC50 (read-out: IDO Hela IC50) is no less than 1000 nM and the half-inhibitory concentration (IC50) under setting [1] is 250 to 2000 nM.

As for `CC[C@H](CC(=O)O)c1ccc(-c2nnc(C)s2)c(Nc2ccc(Cl)cc2)c1` (single isomer, unassigned) [Example 22], where the note is “read-out: IDO Hela IC50”, the IC50 was 30 nM.

In the case of `CC[C@H](CC(=O)O)c1ccc(-c2cnn(C)c2)c(NC(=O)Nc2ccc(Cl)cc2F)c1` (single isomer, unassigned) [Example 23], the IC50 (read-out: IDO Hela IC50) was no less than 1000 nM and the IC50 under setting [1] is 250 to 2000 nM.

On to `CC[C@H](CC(=O)O)c1ccc(-c2cnn(C(C)C)c2)c(NC(=O)Nc2ccc(Cl)cc2F)c1` (single isomer, unassigned) [Example 24], for which the IC50 reads like this: (read-out: IDO Hela IC50) no less than 1000 nM; under setting [1], 250 to 2000 nM.

`CCOc1ncc(Nc2cc([C@H](CC)CC(=O)O)ccc2C2CCN(C(=O)OC(C)(C)C)CC2)cn1` (single isomer, unassigned) [Example 25]: the IC50 (read-out: IDO Hela IC50) was 20 nM.

Consider `CCOc1ncc(Nc2cc([C@@H](CC)CC(=O)O)ccc2C2CCN(C(=O)OC(C)(C)C)CC2)cn1` (single isomer, unassigned) [Example 26], for which, for the setting “read-out: IDO Hela IC50”, the IC50 is 20 nM.

`CC[C@H](CC(=O)O)c1ccc(C2CCN(C(=O)OC(C)(C)C)CC2)c(Nc2cnc(C)nc2)c1` (single isomer, unassigned) [Example 27]: the IC50 (read-out: IDO Hela IC50) was determined as 820 nM.

With `CC[C@@H](CC(=O)O)c1ccc(C2CCN(C(=O)OC(C)(C)C)CC2)c(Nc2cnc(C)nc2)c1` (single isomer, unassigned) [Example 28], the IC50 (read-out: IDO Hela IC50) is 760 nM.

Turning to `CCc1ncc(Nc2cc([C@H](CC)CC(=O)O)ccc2C2CCN(C(=O)OC(C)(C)C)CC2)cn1` (single isomer, unassigned) [Example 29], the IC50 (read-out: IDO Hela IC50) turned out to be 130 nM.

Take `CC[C@H](CC(=O)O)c1ccc(C2CCN(C(=O)OC(C)(C)C)CC2)c(Nc2ccc(C#N)cc2)c1` (single isomer, unassigned) [Example 30]: the IC50 under setting [1] was less than 50 nM.

For `CCc1ncc(Nc2cc([C@@H](CC)CC(=O)O)ccc2C2CCN(C(=O)OC(C)(C)C)CC2)cn1` (single isomer, unassigned) [Example 31], the IC50 (read-out: IDO Hela IC50) came out at 20 nM.

`CC[C@@H](CC(=O)O)c1ccc(C2CCN(C(=O)OC(C)(C)C)CC2)c(Nc2ccc(C#N)cc2)c1` (single isomer, unassigned) [Example 32]: the IC50 under setting [1] was less than 50 nM.

For `COC[C@@H](CC(=O)O)c1ccc(-c2cnn(C)c2)c(Nc2ccc(C#N)cc2)c1` (single isomer, unassigned) [Example 33, 3-(3-((4-cyanophenyl)amino)-4-(1-methyl-1H-pyrazol-4-yl)phenyl)-4-methoxybutanoic Acid], the IC50 is, setting by setting: (read-out: IDO Hela IC50) no less than 1000 nM; under setting [1], 250 to 2000 nM.

For `COC[C@@H](CC(=O)O)c1ccc(-c2ccc3c(c2)OCO3)c(Nc2ccc(C#N)cc2)c1` (single isomer, unassigned) [Example 34], the half-maximal inhibitory concentration (IC50) (read-out: IDO Hela IC50) is 320 nM.

Take `COC[C@@H](CC(=O)O)c1ccc(-c2ccoc2)c(Nc2ccc(C#N)cc2)c1` (single isomer, unassigned) [Example 35]: under “read-out: IDO Hela IC50”, the IC50 came to 10 nM.

Consider `COC[C@@H](CC(=O)O)c1ccc(-c2cnn(Cc3ccc(OC)cc3)c2)c(Nc2ccc(C#N)cc2)c1` (single isomer, unassigned) [Example 36], for which, under “read-out: IDO Hela IC50”, the IC50 was determined as 30 nM.

`COC[C@H](CC(=O)O)c1ccc(-c2ccc3c(c2)OCO3)c(Nc2ccc(C#N)cc2)c1` (single isomer, unassigned) [Example 38]: the IC50 (read-out: IDO Hela IC50) was 50 nM.

In the case of `COC[C@H](CC(=O)O)c1ccc(-c2ccoc2)c(Nc2ccc(C#N)cc2)c1` (single isomer, unassigned) [Example 39], the IC50 (read-out: IDO Hela IC50) turned out to be 20 nM.
